Measurements as given in patent US20230159453A1 (COCRYSTAL PHARMA, INC., priority 2020, published 2023).

The molecules below were run against SARS2 protease (Severe acute respiratory syndrome coronavirus 2, UniProt P0DTD1) (assay: SARS-CoV-2 protease inhibition assay (SARS2 FRET protease assay)). Conditions: SARS-CoV-2 protease 25 nM, FRET, peptide substrate 1.3 μM, 30 minutes at 30° C., compounds 20 μM to 1.0 nM; read-out: IC50.
Format: biochemical

SMILES	IC50 [µM]
O=C(N[C@@H](CC1CCCCC1)C(=O)N[C@@H](C[C@@H]1CCNC1=O)C(=O)C(=O)NC1CC1)O[C@@H]1CCC[C@@H]1Cc1cccc(Cl)c1 [Compound C265]	0.84
CC(C)C[C@H](NC(=O)OC(c1cccc(Cl)c1)C(F)(F)c1cccc(Cl)c1)C(=O)N[C@H](C=O)C[C@@H]1CCNC1=O (some centres unmarked) [Compound C266]	0.02
CCCCC[C@H](NC(=O)OC(c1ccccc1)C(C)(C)c1cccc(Cl)c1)C(=O)N[C@H](C=O)C[C@@H]1CCNC1=O (some centres unmarked) [Compound C267]	0.1
CC(C)C[C@H](NC(=O)O[C@@H](c1cccc(F)c1)C(C)(C)c1cccc(Cl)c1)C(=O)N[C@H](C=O)C[C@@H]1CCNC1=O [Compound C268]	0.02
CC(C)C[C@H](NC(=O)O[C@H](c1cccc(F)c1)C(C)(C)c1cccc(Cl)c1)C(=O)N[C@H](C=O)C[C@@H]1CCNC1=O [Compound C269]	0.07
CC(C)C[C@H](NC(=O)OC(c1ccccc1)C(C)(C)c1cccc(Cl)c1)C(=O)N[C@@H](C[C@@H]1CCNC1=O)C(=O)C(=O)N1CCCCC1 (some centres unmarked) [Compound C270]	4.41
CCOCCNC(=O)C(=O)[C@H](C[C@@H]1CCNC1=O)NC(=O)[C@H](CC1CCCCC1)NC(=O)OC(c1ccccc1)C(C)(C)c1cccc(Cl)c1 (some centres unmarked) [Compound C271]	2
O=C[C@H](C[C@@H]1CCNC1=O)NC(=O)[C@H](CC1CCCCC1)NC(=O)OC(Cc1cccc(Cl)c1)c1cccc(Cl)c1 (stereo partly drawn) [Compound C272, 1,2-Bis(3-chlorophenyl)ethyl ((S)-3-cyclohexyl-1-oxo-1-(((S)-1-oxo-3-((S)-2-oxopyrrolidin-3-yl)propan-2-yl)amino)propan-2-yl)carbamate]	0.32
CC(C)(c1cccc(Cl)c1)C(OC(=O)N[C@@H](CC1CCCCC1)C(=O)N[C@@H](C[C@@H]1CCNC1=O)C(=O)CO)c1ccccc1 (some centres unmarked) [Compound C273]	5.35
CC(C)C[C@H](NC(=O)OC(c1ccccc1)C(C)(C)c1cccc(Cl)c1)C(=O)N[C@@H](C[C@@H]1CCNC1=O)C(=O)C(=O)N1CCNCC1 (some centres unmarked) [Compound C274]	12
CC(C)C[C@H](NC(=O)O[C@@H](c1ccccc1)C(C)(C)c1cccc(Cl)c1)C(=O)N[C@H](C=O)C[C@@H]1CCNC1=O [Compound C275]	0.02
CC(C)C[C@H](NC(=O)O[C@H](c1ccccc1)C(C)(C)c1cccc(Cl)c1)C(=O)N[C@H](C=O)C[C@@H]1CCNC1=O [Compound C276]	0.06
CC(C)C[C@H](NC(=O)OC(c1ccccc1)C1(c2cccc(Cl)c2)CCC1)C(=O)N[C@H](C=O)C[C@@H]1CCNC1=O (some centres unmarked) [Compound C277]	0.71
CC(C)C[C@H](NC(=O)OC(c1ccccc1)C1(c2cccc(Cl)c2)CCCC1)C(=O)N[C@H](C=O)C[C@@H]1CCNC1=O (some centres unmarked) [Compound C278]	0.02
CC(C)C[C@H](NC(=O)OC(c1ccccc1)C(F)(F)c1cccc(Cl)c1)C(=O)N[C@@H](C[C@@H]1CCNC1=O)C(=O)CO (some centres unmarked) [Compound C279]	6.59
CC(C)C[C@H](NC(=O)OC(Cc1ccccc1)c1ccccc1)C(=O)N[C@@H](C[C@@H]1CCNC1=O)C(=O)C(=O)N1CCN(C(=O)OC(C)(C)C)CC1 (some centres unmarked) [Compound C280]	> 20
CC1(C)CC(CC(NC(=O)[C@H](CC2CCCCC2)NC(=O)OC(c2cccc(Cl)c2)C(C)(C)c2cccc(Cl)c2)C(=O)C(=O)NC2CC2)C(=O)N1 (some centres unmarked) [Compound C281]	2.48
CC(C)C[C@H](NC(=O)OC(Cc1cccc(Cl)c1)c1cccc(Cl)c1)C(=O)N[C@H](C=O)C[C@@H]1CCNC1=O (stereo partly drawn) [Compound C282, 1,2-Bis(3-chlorophenyl)ethyl ((S)-4-methyl-1-oxo-1-(((S)-1-oxo-3-((S)-2-oxopyrrolidin-3-yl)propan-2-yl)amino)pentan-2-yl)carbamate]	0.04
CC(C)C[C@H](NC(=O)OC(Cc1ccccc1)c1ccccc1)C(=O)N[C@@H](C[C@@H]1CCNC1=O)C(=O)C(=O)N1CCNCC1 (some centres unmarked) [Compound C283]	> 20
CC(C)(c1cccc(Cl)c1)C(OC(=O)N[C@@H](Cc1ccccc1)C(=O)N[C@@H](C[C@@H]1CCNC1=O)C(=O)C(=O)NC1CC1)c1ccccc1 (some centres unmarked) [Compound C284]	1.57
